Measured values taken from US8758810B2, “Liposome compositions” (priority 2005, dated 2014).

Tested on: AsPC-1 cells
Assay: Cytotoxicity test for oxaliplatin (WST-1 kit)
Type: cell-based
Conditions: l-OHP solutions 48 hours
Method: An oxaliplatin (l-OHP) solution was prepared by dissolving oxaliplatin in a 9% sucrose solution (sucrose/distilled water) at a concentration of 8 mg/ml. The cell viability was determined using a commercially available cytotoxicity assay kit (WST-1 kit, Wako Pure Chemical Industries, Ltd., Japan).
AsPC-1 cells (provided by Dr. Hironobu Yanagie of Research Center for Advanced Science and Technology, the University of Tokyo, Japan) cultured in RPMI 1640 medium supplemented with 10% FCS (fetal calf serum; SIGMA, USA) were treated with concentrations of l-OHP solutions [200×(1/2)^(0-10) nM] at 37° C. in 5% CO2 for 48 hours. Then, the medium was removed and a substrate (WST-1, Cell Counting Kit, Dojindo Laboratories, Japan) was added to the cells which were incubated at 37° C. in 5% CO2 for 2 hours to develop the colored product. The developed color was measured at an absorbance of 450 nm (reference wavelength: 620 nm) on an Immuno Mini NJ-2300 (Cosmo Bio Co., Ltd., Japan).

## O=C1[O][Pt]2([NH]C3CCCCC3[NH]2)[O]C1=O [l-OHP, cis-[(1R, 2R)-1,2-cyclohexanediamine-N,N′][oxalato(2)-O,O′]platinum]
  cytotoxicity LD50: > 8 µg/mL
